The CheMixHub viscosity set

Assay: xn = mol fraction of the nth substance listed

CCOC(=O)OCC + CCCCO
101 kPa
Details	viscosity [mPa·s]
293.15 K, x1 = 0.05477	2.407
293.15 K, x1 = 0.1013	2.092
293.15 K, x1 = 0.1989	1.633
293.15 K, x1 = 0.3128	1.321
293.15 K, x1 = 0.4106	1.145
293.15 K, x1 = 0.5009	1.023
293.15 K, x1 = 0.6135	0.901
293.15 K, x1 = 0.7033	0.838
293.15 K, x1 = 0.7967	0.806
293.15 K, x1 = 0.8803	0.807
293.15 K, x1 = 0.9292	0.802
303.15 K, x1 = 0.1264	1.549
303.15 K, x1 = 0.2963	1.093
303.15 K, x1 = 0.4038	0.957
303.15 K, x1 = 0.5148	0.867
303.15 K, x1 = 0.6085	0.808
303.15 K, x1 = 0.7037	0.759
303.15 K, x1 = 0.8066	0.717
303.15 K, x1 = 0.9043	0.701
313.15 K, x1 = 0.04531	1.564
313.15 K, x1 = 0.2917	0.947
313.15 K, x1 = 0.4025	0.819
313.15 K, x1 = 0.5009	0.743
313.15 K, x1 = 0.6129	0.679
313.15 K, x1 = 0.7014	0.645
313.15 K, x1 = 0.81	0.628
313.15 K, x1 = 0.9091	0.619

Cc1ccccc1C + CCCCO
308.15 K, 101 kPa
Details	viscosity [mPa·s]
x2 = 0.0515	0.62
x2 = 0.1019	0.659
x2 = 0.1872	0.672
x2 = 0.3031	0.687
x2 = 0.4127	0.752
x2 = 0.5164	0.808
x2 = 0.6146	0.912
x2 = 0.7079	1.021
x2 = 0.7965	1.135
x2 = 0.8809	1.326
x2 = 0.9612	1.564

CCC#N + CCCCOC(C)=O
303.15 K, 101.33 kPa
Details	viscosity [mPa·s]
x1 = 0.11	0.6161
x1 = 0.2014	0.5958
x1 = 0.2942	0.5799
x1 = 0.4034	0.5557
x1 = 0.5034	0.5332
x1 = 0.594	0.5076
x1 = 0.7008	0.4785
x1 = 0.798	0.4496
x1 = 0.8966	0.419

CC(C)[C@@H]1CC[C@@H](C)C[C@H]1O + CCCO
Details	viscosity [mPa·s]
298.15 K, 101.33 kPa, x1 = 0.5	28.39

CCCCCCCCCCO + CCCO
viscosity [mPa·s], 101 kPa
Details	298.15 K	308.15 K	318.15 K
x2 = 0.05	10.52	7.206	5.14
x2 = 0.1	10.05	6.914	4.927
x2 = 0.15	9.562	6.633	4.716
x2 = 0.2	9.064	6.36	4.508
x2 = 0.25	8.557	6.093	4.306
x2 = 0.3	8.046	5.831	4.109
x2 = 0.35	7.534	5.572	3.921
x2 = 0.4	7.023	5.314	3.741
x2 = 0.45	6.517	5.058	3.572
x2 = 0.5	6.018	4.802	3.416
x2 = 0.55	5.529	4.547	3.275
x2 = 0.6	5.052	4.293	3.15
x2 = 0.65	4.589	4.04	3.044
x2 = 0.7	4.142	3.79	2.96
x2 = 0.75	3.712	3.543	2.9
x2 = 0.8	3.303	3.301	2.866
x2 = 0.85	2.915	3.065	2.862
x2 = 0.9	2.549	2.839	2.89
x2 = 0.95	2.207	2.624	2.953
